The NIST ThermoML archive (doi:10.1021/je700732u)

Legend:
[1] = mn = molality of the nth substance listed, in mol/kg; conditions: 298.15 K, 101 kPa, Liquid
[2] = cn = amount concentration of the nth substance listed, in mol/dm3; conditions: 298.15 K, 101 kPa, Liquid

OC[C@H]1O[C@@](CO)(O[C@H]2O[C@H](CO)[C@@H](O)[C@H](O)[C@H]2O)[C@@H](O)[C@@H]1O [D-sucrose] + O
[1]
Conditions | mass density [kg/m3] | viscosity [mPa·s]
m1 = 0.2 | 1022.17 | 1.064
m1 = 0.4 | 1045.26 | 1.277
m1 = 0.6 | 1066.44 | 1.533
m1 = 0.8 | 1086.04 | 1.843
m1 = 1 | 1104.2 | 2.241
m1 = 1.2 | 1121.03 | 2.638

[Cl][Cu][Cl] [copper chloride] + O
[1]
Conditions | mass density [kg/m3]
m1 = 0.0498 | 1003.12
m1 = 0.09962 | 1009.1
m1 = 0.1992 | 1020.92
m1 = 0.2988 | 1032.58
m1 = 0.498 | 1055.47

O=S(=O)([O-])[O-].[Cu+2] [copper sulfate] + O
Conditions | mass density [kg/m3] | viscosity [mPa·s]
[1], m1 = 0.05 | 1005.22 | –
[1], m1 = 0.1 | 1013.29 | –
[1], m1 = 0.2 | 1029.16 | –
[1], m1 = 0.3 | 1044.87 | –
[1], m1 = 0.4 | 1060.4 | –
[1], m1 = 0.5 | 1075.78 | –
[2], c1 = 0.04986 | – | 0.9222
[2], c1 = 0.09974 | – | 0.9516
[2], c1 = 0.1995 | – | 1.013
[2], c1 = 0.2991 | – | 1.083
[2], c1 = 0.3987 | – | 1.147
[2], c1 = 0.4981 | – | 1.223

[Cl-].[Cl-].[Mg+2] [magnesium chloride] + O
[1]
Conditions | mass density [kg/m3]
m1 = 0.09998 | 1004.88
m1 = 0.2001 | 1012.54
m1 = 0.4002 | 1027.51
m1 = 0.5 | 1034.83

O=S(=O)([O-])[O-].[Mg+2] [magnesium sulfate] + O
Conditions | mass density [kg/m3] | viscosity [mPa·s]
[1], m1 = 0.05 | 1003.14 | –
[1], m1 = 0.1 | 1009.13 | –
[1], m1 = 0.2 | 1020.83 | –
[1], m1 = 0.3 | 1032.43 | –
[1], m1 = 0.4 | 1043.79 | –
[1], m1 = 0.5 | 1055.11 | –
[2], c1 = 0.04787 | – | 0.9216
[2], c1 = 0.09971 | – | 0.9527
[2], c1 = 0.1994 | – | 1.016
[2], c1 = 0.2989 | – | 1.083
[2], c1 = 0.3983 | – | 1.155
[2], c1 = 0.4976 | – | 1.234

[Cl-].[Na+] [sodium chloride] + O
[1]
Conditions | mass density [kg/m3]
m1 = 0.04999 | 999.11
m1 = 0.09999 | 1001.16
m1 = 0.1999 | 1005.2
m1 = 0.2999 | 1009.2
m1 = 0.4002 | 1013.17

O=S(=O)([O-])[O-].[Na+].[Na+] [sodium sulfate] + O
[1]
Conditions | mass density [kg/m3]
m1 = 0.09205 | 1008.69
m1 = 0.2001 | 1021.99
m1 = 0.3 | 1034.01
m1 = 0.3999 | 1045.81
m1 = 0.5001 | 1057.44
